Source: patent US4925844A, “Antagonizing the pharmacological effects of a benzodiazepine receptor agonist” (ICI Americas Inc., priority 1989, dated 1990)

Legend:
benzodiazepine receptors [1] = experiment: [3H]-flunitrazepam binding test (FNB test); conditions: at a tested concentration of 500 nanomolar or less; rat cerebral cortex P2 membranes
rats [2] = experiment: Anti-conflict activity / shock-induced suppression of drinking (SSD) test; assay type: in vivo; conditions: for antagonism of the anticonflict or disinhibiting activity (increase in shocks taken) of benzodiazepine agonists: oral or i.p., 0.2 to 50 mg per kg, 30 to 45 minutes before the benzodiazepine agonist; for anticonflict activity (increase in mean number of shocks taken vs vehicle controls): substance given alone
Procedure: A modification of the method of Vogel and coworkers (1971) is used. […] In this test, benzodiazepine agonists (e.g. chlordiazepoxide) are administered either intraperitoneally (i.p.) or orally (p.o.) at 30 or 60 min., respectively, prior to the initiation of the test. […]
The mean number of shocks taken for the groups that received the test agents (benzodiazepine agonists) alone and in the presence of benzodiazepine antagonist are recorded.

[3] = system: metrazole-induced convulsions; experiment: Antagonism of metrazole-induced convulsions (anticonvulsant activity); assay type: in vivo; conditions: substance given alone
Procedure: Further tests may be conducted to evaluate the agonist/antagonist profile of a compound. […] To determine the antagonist properties of a test compound, subjects are treated with test agent intraperitoneally or orally at selected intervals prior to or following treatment with a benzodiazepine agonist, and are then tested under the appropriate test conditions.

rats [4] = experiment: Neuromuscular impairment / roto-rod test; conditions: for antagonism of diazepam-induced neuromuscular impairment on the roto-rod: oral or intraperitoneal, 30 to 45 minutes before the benzodiazepine agonist; for neuromuscular uncoordination (ataxia) on the roto-rod: benzodiazepine agonist alone
Procedure: Further tests may be conducted to evaluate the agonist/antagonist profile of a compound. The procedures or methods used to determine anticonflict (shock-induced suppressions of drinking test), antagonism of metrazole-induced convulsions and neuromuscular impairment (roto-rod studies) are published in Eur. J. Pharmacol. 78(3):323-333 (1980) and briefly discussed below. To determine the antagonist properties of a test compound, subjects are treated with test agent intraperitoneally or orally at selected intervals prior to or following treatment with a benzodiazepine agonist, and are then tested under the appropriate test conditions.
A roto-rod test (Rinnard and Car, J. Pharmacol. and Exp. Therap. 121:354 (1957)) which measures the rat's muscle tone and ability to perform coordinated locomotor tasks may be used to evaluate a test compound's antagonist properties. In the roto-rod test, rats are trained to maintain themselves for at least 1 min on a rotating rod (6 r.p.m.). Subjects are treated with a test compound and are retested for their ability to maintain themselves on the roto-rod at 30 and 60 min. post-drug administration. Subjects that fail to stay on the rod for a one-minute period are considered to be neuromuscularly impaired (ataxia) and the ED50 (that dose which would be expected to produce ataxia in 50% of the rats tested) is calculated. […] The benzodiazepine antagonists may also be administered immediately prior to, or immediately after, the benzodiazepine agonist in this test.

male Wistar rats = experiment: Overt toxicity after intraperitoneal dosing; assay type: in vivo
Description: In general, the compound 4-amino-8-phenyl-N-propyl-3-cinnolinecarboxamide is believed to be able to antagonize the effects of benzodiazepine receptor agonists and will be useful whenever such antagonism is desired.

benzodiazepine receptors [5] = conditions: general statement on how activity is indicated in the test; cited from earlier work

| SMILES | antagonism of the anticonflict or disinhibiting activity (increase in shocks taken) of benzodiazepine agonists (rats [2]) | anticonflict activity (increase in mean number of shocks taken vs vehicle controls) (rats [2]) | antagonism of diazepam-induced neuromuscular impairment on the roto-rod (rats [4]) | neuromuscular uncoordination (ataxia) on the roto-rod (rats [4]) | effect on flunitrazepam binding (displacement or enhancement) (benzodiazepine receptors [5]) | other results |
| --- | --- | --- | --- | --- | --- | --- |
| CCCNC(=O)c1nnc2c(-c3ccccc3)cccc2c1N [formula Ia, 4-amino-8-phenyl-N-propyl-3-cinnolinecarboxamide] | antagonized | does not exhibit | antagonized |  |  | displacement of specific [3H]-flunitrazepam binding (benzodiazepine receptors [1]): ≥ 50%; mean number of shocks taken (reversal of chlordiazepoxide effect) (rats [2]; rats, oral 1.25 mg per kg five minutes prior to 18 mg per kg oral chlordiazepoxide): did not exhibit a significant increase; anticonvulsant activity typical of benzodiazepine agonists [3]: does not exhibit; neuromuscular impairment (reversal of diazepam effect; ability to remain on the roto-rod) (rats [4]; rats, intraperitoneal 1.25 mg per kg five minutes after 20 mg per kg intraperitoneal diazepam): did not exhibit significant neuromuscular impairment; toxicological problems (male Wistar rats; at several multiples of a therapeutic dose): has not exhibited toxicological problems; overt toxic effects (male Wistar rats; male Wistar rats, intraperitoneal dose of 50 mg per kg): no overt toxic effects |
| CCOC(=O)c1ncn2c1CN(C)C(=O)c1cc(F)ccc1-2 [ethyl 8-fluoro-5,6-dihydro-5-methyl-6-oxo-4H-imidazo(1,5a)(1,4)benzodiazepine-3-carboxylate] | antagonized |  | antagonized |  |  |  |
| CNC1=Nc2ccc(Cl)cc2C(c2ccccc2)=[N+]([O-])C1 [chlordiazepoxide] |  | significant (P<0.05) anticonflict activity |  | produce neuromuscular uncoordination (ataxia) at relatively low doses |  | mean number of shocks taken as compared to vehicle controls (rats [2]; rats, oral dose of 18 mg per kg chlordiazepoxide alone): significant increases |
| CCCCNc1c(C(=O)OCC)cnc2c1cnn2CC [cartazolate] |  |  |  |  | enhancement of the binding |  |
| CN1C(=O)CN=C(c2ccccc2)c2cc(Cl)ccc21 [diazepam] |  | significant (P<0.05) anticonflict activity |  | produce neuromuscular uncoordination (ataxia) at relatively low doses |  |  |
| CCCCNc1c(C(=O)OCC)c(C)nc2c1cnn2CC [tracazolate] |  |  |  |  | enhancement of the binding |  |
